Measured values as given in patent US20200255492A1, “LEPTIN PEPTIDES AND THEIR USE FOR TREATING NEUROLOGICAL DISORDERS” (UNIVERSITY OF DUNDEE, priority 2017, published 2020).

System: SH-SY5Y neural cells
Assay: Serum/glucose deprivation (in vitro model of stroke), crystal violet assay
Type: cell-based, human
Conditions: 96 hours; range of concentrations
Method: Cultures were established on 7 separate occasions in quadruplicate and starved of serum and glucose when they reached 70% confluence. Neural cell viability in response to a range of concentrations of leptin116-130 was determined 96 hours later using a crystal violet assay to measure cell number. Statistical significance relative to serum/glucose deprivation is denoted with ** where P<0.01 and *** where P<0.001. Photomicrographs of serum/glucose deprived cultures and of serum/glucose deprived cultures treated with 0.1 nM leptin116-130 (B) further highlight the enhanced cell number in the presence of leptin116-130. Scale bar represents 25 μm. […]
The concentration of lactate dehydrogenase (LDH) in the culture medium or the mitochondrial activity within cells was used to monitor the level of cell death, as previously (Oldreive and Doherty 2010). […] Plates were washed 5-10 times in dH2O and cells solubilised in 100 μl dimethyl sulfoxide (DMSO) before reading the absorbance on a Biohit BP100 plate reader. For all assays, data is expressed as percentage relative to control, untreated wells to normalize for differences in plating density between individual experiments.

SCSLPQTSGLQKPES (listed as Mus musculus) [leptin (116-130)]
survival following serum/glucose deprivation: significant neuroprotection
